Patent US11919901B2 (Syndax Pharmaceuticals, Inc., priority 2021, dated 2024)

Test system: MV4-11 cells
Assay: Cell proliferation assay MV4;11 (CellTiter-Glo, 72 hours)
Assay type: cell-based
Details: Homo sapiens; MV4;11 leukemia cell line, 72 hours; read-out: MV4; 11 IC50
Outline: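 Luminescent CellTiter-Glo readout after 72 h culture, 37 °C, 5% CO2, expressed relative to vehicle-treated wells, with maximal inhibition taken at the highest dose. MLL-rearranged MV4-11 leukemia cells; final compound range 0.632 to 2000 nM in eight steps.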

In the case of `CC(C)N(CC#N)C(=O)c1cc(F)ccc1Oc1cncnc1N1CC2(CCN(C[C@@H]3CC[C@@H](NS(=O)(=O)N4CCC4)CO3)CC2)C1` [Example 182, 2-((4-(7-(((2S,5R)-5-(Azetidine-1-sulfonamido)tetrahydro-2H-pyran-2-yl)methyl)-2,7-diazaspiro[3.5]nonan-2-yl)pyrimidin-5-yl)oxy)-N-(cyanomethyl)-5-fluoro-N-isopropylbenzamide], the IC50 is reported as under 0.1 µM.

`CC(C)N(CCC#N)C(=O)c1cc(F)ccc1Oc1cncnc1N1CC2(CCN(C[C@@H]3CC[C@@H](NS(=O)(=O)N(C)C)CO3)CC2)C1` [Example 183, N-(2-Cyanoethyl)-2-((4-(7-(((2S,5R)-5-((N,N-dimethylsulfamoyl)amino)tetrahydro-2H-pyran-2-yl)methyl)-2,7-diazaspiro[3.5]nonan-2-yl)pyrimidin-5-yl)oxy)-5-fluoro-N-isopropylbenzamide] gave an IC50 of under 0.1 µM.

`CC(C)N(CCC#N)C(=O)c1cc(F)ccc1Oc1cncnc1N1CC2(CCN(C[C@@H]3CC[C@@H](NS(=O)(=O)N4CCC4)CO3)CC2)C1` [Example 184, 2-((4-(7-(((2S,5R)-5-(Azetidine-1-sulfonamido)tetrahydro-2H-pyran-2-yl)methyl)-2,7-diazaspiro[3.5]nonan-2-yl)pyrimidin-5-yl)oxy)-N-(2-cyanoethyl)-5-fluoro-N-isopropylbenzamide] showed an IC50 of under 0.1 µM.

`CCS(=O)(=O)N[C@@H]1CC[C@@H](CN2CCC3(CC2)CN(c2ncnnc2Oc2ccc(F)cc2C(=O)N(CC(F)F)C(C)C)C3)OC1` [Example 185, N-(2,2-Difluoroethyl)-2-((5-(7-(((2S,5R)-5-(ethylsulfonamido)tetrahydro-2H-pyran-2-yl)methyl)-2,7-diazaspiro[3.5]nonan-2-yl)-1,2,4-triazin-6-yl)oxy)-5-fluoro-N-isopropylbenzamide] was tested, and the IC50 was under 0.1 µM.

In the case of `CC(C)N(CC(F)F)C(=O)c1cc(F)ccc1Oc1nncnc1N1CC2(CCN(C[C@@H]3CC[C@@H](NS(=O)(=O)C4CC4)CO3)CC2)C1` [Example 186, 2-((5-(7-(((2S,5R)-5-(Cyclopropanesulfonamido)tetrahydro-2H-pyran-2-yl)methyl)-2,7-diazaspiro[3.5]nonan-2-yl)-1,2,4-triazin-6-yl)oxy)-N-(2,2-difluoroethyl)-5-fluoro-N-isopropylbenzamide], the IC50 is reported as under 0.1 µM.

For `CCNS(=O)(=O)N[C@@H]1CC[C@@H](CN2CCC3(CC2)CN(c2ncnnc2Oc2ccc(F)cc2C(=O)N(CC(F)F)C(C)C)C3)OC1` [Example 188, N-(2,2-Difluoroethyl)-2-((5-(7-(((2S,5R)-5-((N-ethylsulfamoyl)amino)tetrahydro-2H-pyran-2-yl)methyl)-2,7-diazaspiro[3.5]nonan-2-yl)-1,2,4-triazin-6-yl)oxy)-5-fluoro-N-isopropylbenzamide], the IC50 was under 0.1 µM.

`CC(C)N(CC(F)F)C(=O)c1cc(F)ccc1Oc1nncnc1N1CC2(CCN(C[C@@H]3CC[C@@H](NS(=O)(=O)N4CCC4)CO3)CC2)C1` [Example 189, 2-((5-(7-(((2S,5R)-5-(Azetidine-1-sulfonamido)tetrahydro-2H-pyran-2-yl)methyl)-2,7-diazaspiro[3.5]nonan-2-yl)-1,2,4-triazin-6-yl)oxy)-N-(2,2-difluoroethyl)-5-fluoro-N-isopropylbenzamide] gave an IC50 of under 0.1 µM.

Work on `CCS(=O)(=O)N[C@@H]1CC[C@@H](CN2CCC3(CC2)CN(c2ncnnc2Oc2ccc(F)cc2C(=O)N(CC(F)(F)F)C(C)C)C3)OC1` [Example 190, 2-((5-(7-(((2S,5R)-5-(Ethylsulfonamido)tetrahydro-2H-pyran-2-yl)methyl)-2,7-diazaspiro[3.5]nonan-2-yl)-1,2,4-triazin-6-yl)oxy)-5-fluoro-N-isopropyl-N-(2,2,2-trifluoroethyl)benzamide] yielded an IC50 of under 0.1 µM.

Work on `CC(C)N(CC(F)(F)F)C(=O)c1cc(F)ccc1Oc1nncnc1N1CC2(CCN(C[C@@H]3CC[C@@H](NS(=O)(=O)C4CC4)CO3)CC2)C1` [Example 191, 2-((5-(7-(((2S,5R)-5-(Cyclopropanesulfonamido)tetrahydro-2H-pyran-2-yl)methyl)-2,7-diazaspiro[3.5]nonan-2-yl)-1,2,4-triazin-6-yl)oxy)-5-fluoro-N-isopropyl-N-(2,2,2-trifluoroethyl)benzamide] yielded an IC50 of under 0.1 µM.

`CCS(=O)(=O)N[C@@H]1CC[C@@H](CN2CCC3(CC2)CN(c2ncnnc2Oc2ccc(F)cc2C(=O)N(C(C)C)C(C)C)C3)OC1` [Example 195, 2-((5-(7-(((2S,5R)-5-(Ethylsulfonamido)tetrahydro-2H-pyran-2-yl)methyl)-2,7-diazaspiro[3.5]nonan-2-yl)-1,2,4-triazin-6-yl)oxy)-5-fluoro-N,N-diisopropylbenzamide] was tested, and the IC50 was under 0.1 µM.

`CC(C)N(C(=O)c1cc(F)ccc1Oc1nncnc1N1CC2(CCN(C[C@@H]3CC[C@@H](NS(=O)(=O)C4CC4)CO3)CC2)C1)C(C)C` [Example 196, 2-((5-(7-(((2S,5R)-5-(Cyclopropanesulfonamido)tetrahydro-2H-pyran-2-yl)methyl)-2,7-diazaspiro[3.5]nonan-2-yl)-1,2,4-triazin-6-yl)oxy)-5-fluoro-N,N-diisopropylbenzamide] gave an IC50 of under 0.1 µM.

In the case of `CCNS(=O)(=O)N[C@@H]1CC[C@@H](CN2CCC3(CC2)CN(c2ncnnc2Oc2ccc(F)cc2C(=O)N(C(C)C)C(C)C)C3)OC1` [Example 198, 2-((5-(7-(((2S,5R)-5-((N-Ethylsulfamoyl)amino)tetrahydro-2H-pyran-2-yl)methyl)-2,7-diazaspiro[3.5]nonan-2-yl)-1,2,4-triazin-6-yl)oxy)-5-fluoro-N,N-diisopropylbenzamide], the IC50 is reported as under 0.1 µM.

`CC(C)N(C(=O)c1cc(F)ccc1Oc1nncnc1N1CC2(CCN(C[C@@H]3CC[C@@H](NS(=O)(=O)N4CCC4)CO3)CC2)C1)C(C)C` [Example 199, 2-((5-(7-(((2S,5R)-5-(Azetidine-1-sulfonamido)tetrahydro-2H-pyran-2-yl)methyl)-2,7-diazaspiro[3.5]nonan-2-yl)-1,2,4-triazin-6-yl)oxy)-5-fluoro-N,N-diisopropylbenzamide] showed an IC50 of under 0.1 µM.

For `C[C@@H]1COC[C@@H](C)N1C(=O)c1cc(F)ccc1Oc1cncnc1N1CC2(CCN(C[C@@H]3CC[C@@H](NS(=O)(=O)N4CCC[C@@H]4C)CO3)CC2)C1` [Example 209, (S)-N-((3R,6S)-6-((2-(5-(2-((3R,5R)-3,5-Dimethylmorpholine-4-carbonyl)-4-fluorophenoxy)pyrimidin-4-yl)-2,7-diazaspiro[3.5]nonan-7-yl)methyl)tetrahydro-2H-pyran-3-yl)-2-methylpyrrolidine-1-sulfonamide], the IC50 was under 0.1 µM.

`CC(C)N(CC(F)F)C(=O)c1cc(F)ccc1Oc1cncnc1N1CC2(CCN(C[C@@H]3CC[C@@H](NS(=O)(=O)N(C)CCCO)CO3)CC2)C1` [Example 214, N-(2,2-difluoroethyl)-5-fluoro-2-((4-(7-(((2S,5R)-5-((N-(3-hydroxypropyl)-N-methylsulfamoyl)amino)tetrahydro-2H-pyran-2-yl)methyl)-2,7-diazaspiro[3.5]nonan-2-yl)pyrimidin-5-yl)oxy)-N-isopropylbenzamide] gave an IC50 of under 0.1 µM.

Compound `CCN(C(=O)c1cc(F)ccc1Oc1cncnc1N1CC2(CCN(C[C@@H]3CC[C@@H](NC(=O)Nc4ccccc4)CO3)CC2)C1)C(C)C` [Example 215, N-Ethyl-5-fluoro-N-isopropyl-2-((4-(7-(((2S,5R)-5-(3-phenylureido)tetrahydro-2H-pyran-2-yl)methyl)-2,7-diazaspiro[3.5]nonan-2-yl)pyrimidin-5-yl)oxy)benzamide] has an IC50 of 0.1 to 1 µM.

Work on `CCN(C(=O)c1cc(F)ccc1Oc1cnc(C)nc1N1CC2(CCN(C[C@@H]3CC[C@@H](NS(=O)(=O)CC)CO3)CC2)C1)C(C)C` [Example 216, N-Ethyl-2-((4-(7-(((2S,5R)-5-(ethylsulfonamido)tetrahydro-2H-pyran-2-yl)methyl)-2,7-diazaspiro[3.5]nonan-2-yl)-2-methylpyrimidin-5-yl)oxy)-5-fluoro-N-isopropylbenzamide] yielded an IC50 of 0.1 to 1 µM.

Compound `C=CS(=O)(=O)N[C@@H]1CC[C@@H](CN2CCC3(CC2)CN(c2ncncc2Oc2ccc(F)cc2C(=O)N(CC)C(C)C)C3)OC1` [Example 219, N-Ethyl-5-fluoro-N-isopropyl-2-((4-(7-(((2S,5R)-5-(vinylsulfonamido)tetrahydro-2H-pyran-2-yl)methyl)-2,7-diazaspiro[3.5]nonan-2-yl)pyrimidin-5-yl)oxy)benzamide] has an IC50 of under 0.1 µM.

With `CCN(C(=O)c1cc(F)ccc1Oc1cncnc1N1CC2(CCN(C[C@@H]3CC[C@@H](NS(=O)(=O)CCN(C)C)CO3)CC2)C1)C(C)C` [Example 220, 2-((4-(7-(((2S,5R)-5-((2-(Dimethylamino)ethyl)sulfonamido)tetrahydro-2H-pyran-2-yl)methyl)-2,7-diazaspiro[3.5]nonan-2-yl)pyrimidin-5-yl)oxy)-N-ethyl-5-fluoro-N-isopropylbenzamide] the IC50 was 0.1 to 1 µM.

`CC(C)N(C(=O)c1cc(F)ccc1Oc1cncnc1N1CC2(CCN(C[C@@H]3CC[C@@H](NS(=O)(=O)N4CC5(CCO5)C4)CO3)CC2)C1)C(C)C` [Example 221, 2-((4-(7-(((2S,5R)-5-(1-Oxa-6-azaspiro[3.3]heptane-6-sulfonamido)tetrahydro-2H-pyran-2-yl)methyl)-2,7-diazaspiro[3.5]nonan-2-yl)pyrimidin-5-yl)oxy)-5-fluoro-N,N-diisopropylbenzamide] showed an IC50 of under 0.1 µM.

`CC(C)N(C(=O)c1cc(F)ccc1Oc1cncnc1N1CC2(CCN(C[C@@H]3CC[C@@H](NS(=O)(=O)N4CC5(COC5)C4)CO3)CC2)C1)C(C)C` [Example 222, 2-((4-(7-(((2S,5R)-5-(2-Oxa-6-azaspiro[3.3]heptane-6-sulfonamido)tetrahydro-2H-pyran-2-yl)methyl)-2,7-diazaspiro[3.5]nonan-2-yl)pyrimidin-5-yl)oxy)-5-fluoro-N,N-diisopropylbenzamide] showed an IC50 of under 0.1 µM.

Compound `CC(C)N(C(=O)c1cc(F)ccc1Oc1cncnc1N1CC2(CCN(C[C@@H]3CC[C@@H](NS(=O)(=O)N4CC5(CCOC5)C4)CO3)CC2)C1)C(C)C` [Example 223, 2-((4-(7-(((2S,5R)-5-(6-Oxa-2-azaspiro[3.4]octane-2-sulfonamido)tetrahydro-2H-pyran-2-yl)methyl)-2,7-diazaspiro[3.5]nonan-2-yl)pyrimidin-5-yl)oxy)-5-fluoro-N,N-diisopropylbenzamide] has an IC50 of under 0.1 µM.
